Source: EP3246028A1, “QUINOLINE COMPOUNDS FOR INCREASING INSULINE RELEASE” (Max-Planck-Gesellschaft zur Förderung der Wissenschaften …, priority 2016, dated 2017)
“Also recorded” adds a separate entry of the source.

What was measured:
Type in all cases: cell-based
RIN-5AH cells [1] = assay: Calcium influx by FACS analysis (Fluo-4 AM fluorescence); conditions: extracellular Ca2+ present, compound 12 at 5 µM
Procedure: Calcium influx was measured by FACS analysis, similar to protocols previously described (Brewis, I. A., journal of andrology 21, 238-249, doi:10.1002/j.1939-4640.2000.tb02101.x (2000); Vines, A., Cytometry Part A 77A, 1091-1097, doi:10.1002/cyto.a.20974 (2010); Schepers, E., Journal of Immunological Methods 348, 74-82, doi:http://dx.doi.org/10.1016/j.jim.2009.07.002 (2009)).
RIN-5AH cells (30,000 cells per well) were plated in 12 well plates and incubated overnight at 37°C and 5% CO2. Cells were stained with Fluo-4 AM (molecular probes, F14201) by using a 3µM stock solution prepared in HBSS with Ca2+ and Mg2+ (HBSS++) and with addition of a final amount of 0.02% Pluronic-F127 (molecular probes, P6867). Cells were incubated with 600ul of the dye/well for 1h at 37°C, in 5% CO2. They were washed 2x with Ca2+ and Mg2+ free HBSS (HBSS--) (Gibco, 14170) before moving to the next step of the protocol (see below).
Cells were trypsinized for three minutes at 37°C and 5% CO2. The cell suspension was then diluted by adding 1ml HBSS-- / well and centrifuged for 3 minutes at 1200 RPM. Cells were resuspended in 1 mL of HBSS++ or HBSS-- before starting the measurement. Base fluorescent signal was recorded for 30 seconds followed by treatment with the various compounds by quickly adding the compounds to the FACS analysis tubes, while acquisition was not interrupted (gaps). […] Samples were measured continuously for the desired time and all measurements were completed within 40 minutes. Unstained cells and stained cells in external buffer without Ca2+ and Mg2+ (HBSS--) were used as negative controls for the treatments. Data were acquired on BD-FACSCalibur and the visualizations were prepared by FlowJo software.

[2] = tested on: RIN-5AH insulinoma beta cell line; assay: Insulin secretion (insulin ELISA of supernatants); conditions: for activation at 5 µM: RIN-5AH cells, treated in medium for 2 hours, read-out: AV_INSULIN (percent increase in insulin secretion over a DMSO control); for insulin secretion relative to a DMSO control, compared to previously reported quinoline compounds: 5 µM compound 12 vs 50 µM quinidine or chloroquine, 10 µM levofloxacin or gatifloxacin, Figure 1; for effect on insulin secretion: negative control quinoline compounds
Procedure: Culture medium and supplements were purchased from Life Technologies. The RIN-5AH insulinoma beta cell line was cultured in RPMI 1640 supplemented with 10% FBS, 2 mM glutamine. All culture media contained 1x penicillin-streptomycin. Cells were grown on 15 cm culture plates at 37°C under 5% CO2 in high humidity atmosphere.
To determine the insulin level from the supernatants insulin ELISA kits from Millipore or Mercodia were used. RIN-5AH cells were seeded in 96 well or 12 well plates and grown overnight. RIN-5AH cells never reached more than 80% confluency before treatment. Cells were washed once with PBS before treatment. Cells were treated in medium for 2 hours and with 5 µM of insulin secretagogue according to the present invention, if not otherwise indicated. After treatment 100ul of supernatant was taken. Samples were assayed immediately or stored at -20°C until measurement. Dilutions were made if necessary and ELISA was subsequently performed according to the user's manual. Insulin secretion was normalized to cell number by MTT assay or to total protein amount by BCA assay (ThermoFisher Scientific, 23225). Plates were read on BioTrek Elx800 absorbance reader at 450 nm.
RIN-5AH beta cells were treated with 5 µM compound 12 or 50 µM quinidine or chloroquine according to the above described protocol (Example 1).

RIN-5AH cells [3] = assay: Whole cell patch clamp (current clamp and voltage clamp)
Procedure: For the purpose of investigation of membrane potential changes and membrane depolarization that triggers and activate voltage dependent calcium channels in beta cells, whole cell patch clamp studies were conducted with the compounds of the present invention. RIN-5AH cells were trypsinized and suspended in medium. Cells were transferred into the recording chamber and allowed to settle down before beginning a slow perfusion with the external buffer (138.0 mM; NaCl; 5.6 mM KCl; 11.1 mM Glucose; 1.2 mM; MgCl2; 2.6 mM CaCl2; 10.0 mM HEPES). Cells were sealed and patched by the application of a gentle negative pressure. Holding membrane potential was set up to -70mV for voltage clamp experiments. After patching the cells, at least 10s of base signal was recorded for both voltage clamp and current clamp measurements. External stimulation of cells was done by using Picospritzer II instrument (Parker) with 5psi for 30s with the desired concentrations (50uM and 500uM for compound 12 and 500uM for glibenclamide as control). The total recording time was set to 1-4 minutes.

Row | SMILES | divalent calcium cation influx (Fluo-4 AM fluorescence by FACS) (RIN-5AH cells [1]; Figure 2) | activation at 5 µM [2] [%] | also measured
1 | COc1c(F)ccc2c(Nc3ccc(Cl)cc3C(F)(F)F)cc(C#N)nc12 [Compound 4, 4-[4-chloro-2-(trifluoromethyl)anilino]-7-fluoro-8-methoxy-quinoline-2-carbonitrile] | induced divalent calcium cation influx | 101 | 
2 | N#Cc1cc(Nc2ccc(Cl)cc2C(F)(F)F)c2cc(F)ccc2n1 [Compound 5, 4-[4-chloro-2-(trifluoromethyl)anilino]-6-fluoro-quinoline-2-carbonitrile] | induced divalent calcium cation influx | 96 | 
3 | N#Cc1cc(Nc2ccc(Cl)cc2C(F)(F)F)c2cccc(F)c2n1 [Compound 7, 4-[4-chloro-2-(trifluoromethyl)anilino]-8-fluoro-quinoline-2-carbonitrile] | induced divalent calcium cation influx; also recorded: induced Ca2+ influx | 93 | 
4 | COc1c(F)ccc2c(Nc3c(Cl)cccc3Cl)cc(C#N)nc12 [Compound 8, 4-(2,6-dichloroanilino)-7-fluoro-8-methoxy-quinoline-2-carbonitrile] | induced divalent calcium cation influx; also recorded: induced Ca2+ influx | 93 | 
5 | COc1cc(Nc2cc(C#N)nc3cc(F)ccc23)c(Cl)cc1Cl [Compound 12, 4-(2,4-dichloro-5-methoxy-anilino)-7-fluoro-quinoline-2-carbonitrile] | induced divalent calcium cation influx | 85 | divalent calcium cation influx (Fluo-4 AM fluorescence by FACS) (RIN-5AH cells [1]; Figure 2, listed as compound 12): induces divalent calcium cation influx; also recorded: induced Ca2+ influx; insulin secretion relative to a DMSO control, compared to previously reported quinoline compounds [2]: more effective; insulin secretion relative to a DMSO control, compared to previously reported quinoline compounds ([2]; listed as compound 12): significantly superior activity; time membrane potential is kept in depolarized state / returns to its initial value (RIN-5AH cells [3]; current clamp): > 240 s; depolarization rate (RIN-5AH cells [3]; current clamp, 500 µM, Figure 3): dramatically increased; shift in membrane potential in current clamp mode (CC) (RIN-5AH cells [3]; from -70mV, after puffs for 30s, Figures 3A and 3B): -20 mV; onset of increase of inward current (RIN-5AH cells [3]; voltage clamp): immediately; maximal inward current versus GBA treated cells (RIN-5AH cells [3]; voltage clamp, 50 µM compound 12 vs GBA): more than 5 fold; difference of maximal inward ion current versus GBA (RIN-5AH cells [3]; voltage clamp, same concentrations of compound 12 and GBA (500 µM)): more than 10 fold; duration of effect on inward current compared to GBA (RIN-5AH cells [3]; voltage clamp, Figure 4): longer lasting effect; time until inward current flow returned back to baseline (RIN-5AH cells [3]; voltage clamp, Figure 4): 3 min
6 | COc1cc2c(Nc3ccc(Cl)cc3C(F)(F)F)cc(C#N)nc2cc1F [Compound 13, 4-[4-chloro-2-(trifluoromethyl)anilino]-7-fluoro-6-methoxy-quinoline-2-carbonitrile] | induced divalent calcium cation influx; also recorded: induced Ca2+ influx | 83 | 
7 | N#Cc1cc(Nc2c(Cl)cccc2Cl)c2cccc(F)c2n1 [Compound 18, 4-(2,6-dichloroanilino)-8-fluoro-quinoline-2-carbonitrile] | induced divalent calcium cation influx; also recorded: induced Ca2+ influx | 73 | 
8 | COc1cc(Nc2cc(C#N)nc3cc(F)c(OCCCN4C(=O)c5ccccc5C4=O)cc23)c(Cl)cc1Cl [Compound 63, 4-(2,4-dichloro-5-methoxy-anilino)-6-[3-(1,3-dioxoisoindolin-2-yl)propoxy]-7-fluoro-quinoline-2-carbonitrile] | did not show any increase |  | effect on insulin secretion [2]: didn't show any effect
9 | COc1cc(Nc2ccnc3cc(OCc4ccccc4)c(OC)cc23)c(Cl)cc1Cl [Compound 73, 7-benzyloxy-N-(2,4-dichloro-5-methoxy-phenyl)-6-methoxy-quinolin-4-amine] | did not show any increase |  | effect on insulin secretion [2]: didn't show any effect
10 | COc1ccc(Cl)cc1C(=O)NCCc1ccc(S(=O)(=O)NC(=O)NC2CCCCC2)cc1 [GBA, glibenclamide, reference compound] | caused calcium influx, however, with a delayed response |  | time membrane potential is kept in depolarized state / returns to its initial value (RIN-5AH cells [3]; current clamp): 90 s; onset of increase of inward current (RIN-5AH cells [3]; voltage clamp): small delayed response
